From US20160000762A1, “IMPROVING COGNITIVE FUNCTION” (THE REGENTS OF THE UNIVERSITY OF CALIFORNIA, priority 2013, published 2016) come the findings set out here.

One assay has as its system AMPAR and NMDAR subunits. Description: Slice surface biotinylation, AMPAR and NMDAR subunits in CA1 slices. Type of assay: in vivo, mice. The method, then: Slice surface biotinylation. Hippocampal slices (400 μm thick) were prepared as described above. CA3 and DG regions were cut away after the slice preparation to isolate CA1. After 30 min recovery at room temperature, the slices were transferred to 30° C. for additional 30 min recovery. The slices were then transferred to ice-cold ACSF for 10 min, and subsequently to ice-cold ACSF containing 1 mg/ml biotin (EZ-Link Sulfo-NHS-SS-Biotin, Pierce) saturated with 5% CO2/95% O2 for 15 min. The slices were then washed in tris-buffered saline (TBS: 50 mM Tris, 0.9% NaCl, pH 7.4) containing 100 mM glycine 5 times for 1 min each before homogenized in ice-cold 0.2% SDS/1% Triton X-100 IPB (20 mM Na3PO4, 150 mM NaCl, 10 mM EDTA, 10 mM EGTA, 10 mM Na4P2O7, 50 mM NaF, and 1 mM Na3VO4, pH 7.4; with […] okadaic acid and 10 KIU/ml aprotinin) by 30 gentle strokes using glass-Teflon tissue homogenizers (Pyrex). The homogenates were centrifuged for 10 min at 13,200×g, 4° C. Protein concentration of the supernatant was normalized to 0.6-1.5 mg/ml. Some of the supernatants were saved as inputs, and the remaining supernatant was mixed with neutravidin slurry [1:1 in 1% Triton X-100 IPB (TX-IPB)] and rotated overnight at 4° C. The neutravidin beads were isolated by brief centrifugation at 1,000×g, and washed 3×1% TX-IPB, 3×1% TX-IPB+500 mM NaCl, followed by 2×1% TX-IPB. The biotinylated surface proteins were then eluded from the neutravidin beads by rotating at room temperature for 15 min in gel sample buffer with 2 mM DTT. The input (total homogenate) and biotinylated samples (surface fraction) were run on separate gels, and processed for immunoblot analysis using GluA1 (sc-55509, Santa Cruz), GluA2/3 (07-598, Upstate/Millipore), GluN1 (a gift from Dr. R. Huganir), GluN2A (07-632, Upstate/Millipore), and GluN2B (71-8600, Invitrogen) antibodies. NMDAR subunit blots were developed using enhanced chemifluorescence substrate (ECF™ substrate, Amersham). AMPAR blots were probed simultaneously with GluR1 and GluR2/3 antibodies followed by second antibodies linked to Cy5 and Cy3. All blots were scanned using TYPHOON™ 9400 (GE Health), and quantified using Image Quant TL software (GE Health). The signal of each sample on a blot was normalized to the average signal from the control group to obtain the % of average control values, which were compared across groups using unpaired Student's t-test.
To test whether the increase in functional excitatory synapses is via cell surface recruitment of glutamate receptors, we performed steady-state surface biotinylation using acute hippocampal slices obtained from mice injected with BTA-EG4 (30 mg/kg) or control vehicle for 2 weeks. Both the cell surface and total levels of major AMPAR subunits GluA1 and GluA2, as well as NMDAR subunits GluN1, GluN2A and GluN2B, were quantified.

The next assay relates to Ras. Description: Ras activity assay, brain lysate of 3× Tg AD mice. In kind it is in vivo. As to conditions: cortex and hippocampus, 30 mg/kg daily, 2 weeks. The method, then:
Ras activity assay. Brain lysate from 3× Tg AD mice at 6-10 months or 13-16 months of age was homogenized with Ral buffer (25 mM Tris-HCl, pH 7.4, 250 mM NaCl, 0.5% NP40, 1.25 mM MgCl2, and 5% glycerol) to measure active Ras levels. Briefly, brain lysate was incubated with GST-Raf-RBD purified protein coupled with GLUTATHIONE SEPHAROSE™ (Amersham) overnight at 4° C. After 24 h, pellets were washed with Ral buffer and western blotting was conducted with anti-Ras.
BTA-EG4 injected 6-10 month old 3× Tg AD mice had increased Ras activity. […] Therefore, we examined whether the same mechanism is shared for improving dendritic spine density in the 3× Tg AD mouse model. To test this, 6-10 month old or 13-16 month old 3× Tg AD mice were injected with 30 mg/kg BTA-EG4 or vehicle daily for two weeks. After two weeks, mouse brains were homogenized with Ral buffer and levels of active Ras and RasGRF1 ([…]) were measured via Western blot. […] However, Ras activity was unchanged in the cortex and hippocampus of 13-16 month old mice (FIGS. 12E-12H, n=2 brains/group).

Another assay has as its system Aβ. Description: Aβ ELISA, brain of injected wild-type mice. As to conditions: 15 or 30 mg/kg i.p. daily for 2 weeks (both doses). Type of assay: in vivo. The protocol: Aβ ELISA. Mouse brains were homogenized in tissue homogenization buffer containing 250 mM sucrose, 20 mM Tris base, protease, and phosphatase inhibitors. To measure soluble Aβ, DEA extraction was performed. Crude 10% homogenate was mixed with an equal volume of 0.4% diethylamine (DEA), sonicated, and ultracentrifuged for 1 hr at 100,000×g. The supernatant was collected and neutralized with 10% 0.5 M Tris, pH 6.8. Sensitive and specific ELISAs to rodent Aβ1-40 was purchased from IBL Transatlantic (Toronto, Canada) and conducted per the manufacturer's protocol.
To test whether BTA-EG4 alters Aβ production in vitro, primary cortical neurons were treated with BTA-EG4 (1 or 5 μM) or control (10% DMSO), and Aβ levels were measured using ELISA. […] We then examined whether BTA-EG4 can alter Aβ levels in vivo by injecting wild-type mice daily for 2 weeks with BTA-EG4 (15 or 30 mg/kg, 10% DMSO in saline, i.p.). […] Furthermore, BTA-EG4 altered APP processing in vivo, as monitored by increased sAPPα (α-secretase cleavage product) and decreased sAPPβ (β-secretase cleavage product) levels in BTA-EG4 injected wild-type mice (30 mg/kg, i.p) compared to control-injected mice (FIGS. 1E, 1F).
(ELISA stands for enzyme-linked immunosorbent assay.)

Take BTA-EG4: the “cell surface or total expression of GluA1, GluA2, GluN1, GluN2A, GluN2B” value in the assay with AMPAR and NMDAR subunits (30 mg/kg, 2 weeks) was “no significant change”. In the assay on AMPAR and NMDAR subunits (total homogenate, CTRL=0.96±0.10), the GluA1/β-actin ratio was 1.06±0.12. Moreover, the GluA2/β-actin ratio with AMPAR and NMDAR subunits (total homogenate, CTRL=0.98±0.09) is given as 1.27±0.14. For the same substance, in the assay with AMPAR and NMDAR subunits (total homogenate, CTRL=0.98±0.12), the GluN1/β-actin ratio is given as 1.27±0.05. Besides, the GluN2B/β-actin ratio in the assay on AMPAR and NMDAR subunits (total homogenate, CTRL=1.02±0.11) was found to be 1.33±0.14. Moreover, the GluN2A/β-actin ratio in the assay on AMPAR and NMDAR subunits (total homogenate, CTRL=1.03±0.08) was 1.04±0.14. For the same substance, the Ras activity result with Ras (6-10 months) was “increased”; in the assay on Ras (13-16 months), “unchanged”. For the same substance, the “Aβ peptide levels in brain” value in the assay on Aβ is reported as “significantly decreased”.
